Data as given in ChEMBL document CHEMBL1201862, “PubChem BioAssay data set” (2004).
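A five-concentration, 48-hour dose response in 96-well plates underlies each endpoint, interpolated linearly between surrounding concentrations. Abbreviation: GI50, concentration required for 50% inhibition of growth.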 The source made the active and inactive calls. Cut-off read from the data, not from the text of the source: active = GI50 up to about 1.1 µM and inactive = higher.

Legend:
Assay in all cases: NCI-60 cell line screen, 48 h
A498 = test system: A498
HOP-62 = test system: HOP-62
SF-268 = test system: SF-268
OVCAR-5 = test system: OVCAR-5
UACC-257 = test system: UACC-257
UO-31 = test system: UO-31
SK-OV-3 = test system: SK-OV-3
SW-620 = test system: SW-620
TK-10 = test system: TK-10
EKVX = test system: EKVX
SK-MEL-5 = test system: SK-MEL-5
U-251 = test system: U-251
CCRF-CEM = test system: CCRF-CEM
A549 = test system: A549
HCC 2998 = test system: HCC 2998
SK-MEL-2 = test system: SK-MEL-2
HCT-116 = test system: HCT-116
SR = test system: SR

Structure (SMILES) | GI50 (A498) | GI50 (HOP-62) | GI50 (SF-268) | GI50 (OVCAR-5) | GI50 (UACC-257) | GI50 (UO-31) | GI50 (SK-OV-3) | GI50 (SW-620) | GI50 (TK-10) | GI50 (EKVX) | GI50 (SK-MEL-5) | GI50 (U-251) | GI50 (CCRF-CEM) | GI50 (A549) | GI50 (HCC 2998) | GI50 (SK-MEL-2) | GI50 (HCT-116) | GI50 (SR)
COc1ccc2ccccc2c1C1OC(=O)c2ccccc21 (stereo not given) | > 100 µM (inactive) | > 100 µM (inactive) | > 100 µM (inactive) | > 100 µM (inactive) | 91 µM (inactive) | 68.2 µM (inactive) | > 100 µM (inactive) | 87.9 µM (inactive) | > 100 µM (inactive) | > 100 µM (inactive) | > 100 µM (inactive) | > 100 µM (inactive) | > 100 µM (inactive) | 96.2 µM (inactive) | > 100 µM (inactive) |  |  | 
CCOc1ccc(/N=C/c2ccc3ccccc3n2)cc1 | > 100 µM (inactive) | > 100 µM (inactive) | > 100 µM (inactive) | > 100 µM (inactive) | > 100 µM (inactive) | 61.8 µM (inactive) | > 100 µM (inactive) | > 100 µM (inactive) | > 100 µM (inactive) | > 100 µM (inactive) | > 100 µM (inactive) | > 100 µM (inactive) | 35.7 µM (inactive) | > 100 µM (inactive) | > 100 µM (inactive) | > 100 µM (inactive) | > 100 µM (inactive) | 
CC1(C)CC23C(=O)N(c4ccccc4)C(Nc4ccccc4)=NC2=CC(C#N)=C(C#N)C3O1 (stereo not given) | 26.4 µM (inactive) | 82 µM (inactive) | > 100 µM (inactive) | > 100 µM (inactive) | 43.3 µM (inactive) | 18.6 µM (inactive) |  | 37.7 µM (inactive) | > 100 µM (inactive) | > 100 µM (inactive) | 28.1 µM (inactive) | > 100 µM (inactive) | 48.6 µM (inactive) | 28.1 µM (inactive) | 67.1 µM (inactive) | 61.5 µM (inactive) | 89.5 µM (inactive) | 
BrC1=CC=C2NCCCCCC/N=C3\C=CC(Br)=CC=C3NCCCCCC/N=C\2C=C1 | > 25.5 µM (inactive) | > 25.5 µM (inactive) | > 25.5 µM (inactive) | > 25.5 µM (inactive) | > 25.5 µM (inactive) | > 25.5 µM (inactive) | > 25.5 µM (inactive) | > 25.5 µM (inactive) | > 25.5 µM (inactive) | > 25.5 µM (inactive) | > 25.5 µM (inactive) | > 25.5 µM (inactive) | > 25.5 µM (inactive) | > 25.5 µM (inactive) | > 25.5 µM (inactive) | > 25.5 µM (inactive) | > 25.5 µM (inactive) | 
CC1=NN(C(=O)Cc2ccccc2)C(=O)/C1=C/c1c(O)ccc2ccccc12 |  | > 100 µM (inactive) | 55.5 µM (inactive) | 35.8 µM (inactive) | 37.5 µM (inactive) | 22.2 µM (inactive) |  | 39.4 µM (inactive) | 56.9 µM (inactive) | > 100 µM (inactive) | 96.6 µM (inactive) |  | 23.3 µM (inactive) | > 100 µM (inactive) | > 100 µM (inactive) | 1.7 µM (inactive) | 49.1 µM (inactive) | 45.7 µM (inactive)
O=C1Nc2ccc([N+](=O)[O-])cc2/C1=N/Nc1ccc([N+](=O)[O-])cc1 | 59.3 µM (inactive) | 18.3 µM (inactive) | 11.3 µM (inactive) |  | 21.1 µM (inactive) | 26.5 µM (inactive) | 22.2 µM (inactive) | 12.5 µM (inactive) | 24.8 µM (inactive) | 35.3 µM (inactive) | 12.2 µM (inactive) | 19.8 µM (inactive) | 72.1 µM (inactive) | 14.4 µM (inactive) |  | 30.1 µM (inactive) |  | 43.4 µM (inactive)
O=S(O)CCCCSSCCCCSSCCCCS(=O)O | 96.6 µM (inactive) |  | 27.4 µM (inactive) | > 100 µM (inactive) | 10.1 µM (inactive) | 29 µM (inactive) | > 100 µM (inactive) | 24.4 µM (inactive) | 26.4 µM (inactive) | 6.38 µM (inactive) | 10.7 µM (inactive) | > 100 µM (inactive) | 5.9 µM (inactive) | 34 µM (inactive) | > 100 µM (inactive) | 24.9 µM (inactive) | > 100 µM (inactive) | 
COC1OC(CO)C(O)C(OC(C)=O)C1NC(=O)N(CCCl)N=O (stereo not given) | > 100 µM (inactive) |  | 21.3 µM (inactive) | > 100 µM (inactive) | > 100 µM (inactive) |  | > 100 µM (inactive) | > 100 µM (inactive) | > 100 µM (inactive) | > 100 µM (inactive) | > 100 µM (inactive) |  | > 100 µM (inactive) | > 100 µM (inactive) | > 100 µM (inactive) | 0.0112 µM (active) | > 100 µM (inactive) | 
